{
  "source": "patent US12610947B2",
  "about": "“Tobacco axillary bud growth inhibitors and methods of inhibiting growth of tobacco axillary buds” (Drexel Chemical Company, priority 2020, dated 2026)",
  "key": {"tobacco": {"tested_on": "tobacco", "experiment": "Example 4 (Farm A and Farm B): phytotoxicity on a scale of 0 to 5", "conditions": "in vivo", "description": "(§1) A fourth study was conducted simultaneously by two separate farms (designated Farm A and Farm B) to further assess the effectiveness of the various treatments including under varying conditions.\nThe overall study was designed in random blocks. The treatments utilized were Biosucker, Bioantak (37 DOT), Antak-68.5, Beloukha, Sharpen 33%, and a control treatment that was untreated. On each farm, each test plot was formed by a single line of 20 plants. Each treatment was applied to three separate plots on each farm. […] The first application was applied when the first axillary shoots were observed. Additional applications were applied when the new axillary shoots were observed. Shoots longer than 3 cm were manually removed at the time of each application. The applications were performed using a manual backpack sprayer, spraying at a low pressure above the plant toward the stalk so that the composition ran down the stalk, contacting the leaf axils. Approximately 20 milliliters of composition were applied to each plant. The phytotoxicity of the treatment compositions was assessed and recorded on a scale of 0 to 5 based on visible symptoms. The number and size of the axil shoots was recorded every 6 to 8 days following the initial treatment application. […] An estimated average length of shoots in each plot could then be calculated according to the number of shoots assigned to each level. […]"}, "[1]": {"tested_on": "axillary shoots of TH241 tobacco", "experiment": "Example 3 plot study: axillary shoot length and effectiveness vs non-treated control", "format": "in vivo", "conditions": "for Axillary Shoot Length Results: level assigned by shoot length; for Axillary Shoot Length Results / Effectiveness Results: dosage and applications per Table 8; for Effectiveness Results: compared to the non-treated control group; for Effectiveness: compared to non-treated control", "description": "A third study was conducted comparing the effects of various treatment compositions on TH241 tobacco. The study was designed in random blocks. Each test plot was formed by two rows of ten tobacco plants. Each treatment was applied to three separate plots. […] The first application was performed when the first axillary shoots were observed. Additional applications were performed when new axillary shoots were observed. Shoots longer than 3 cm were manually removed at the time of each application. The applications were performed using a manual backpack sprayer, spraying at a low pressure above the plant toward the stalk so that the composition ran down the stalk, contacting the leaf axils. Approximately 13 to 26 milliliters of composition were applied to each plant. The phytotoxicity of the treatment compositions was assessed and recorded on a scale of 0 to 5 based on visible symptoms. The number and size of the axil shoots was recorded every 7 to 14 days following the initial treatment application. Axillary shoots were assigned a level according to their length. Shoots less than 3 cm in length were assigned to level 1. Shoots between 3 and 15 cm were assigned to level 2. Shoots between 15 and 30 cm were assigned to level 3. Shoots between 30 and 45 cm were assigned to level 4. Shoots between 45 and 60 cm were assigned to level 5. And shoots greater than 60 cm were assigned to level 6. An estimated average length of shoots in each plot could then be calculated according to the number of shoots assigned to each level. […] For this reason, treatments 1, 3, 4, and 5 were applied three times; treatments 2, 6, and 7 were applied twice; and treatments 8 and 9 were applied only once. The effectiveness of each treatment method was calculated as compared to the non-treated control group."}, "[2]": {"tested_on": "axillary shoots of tobacco", "experiment": "Example 4 (Farm A and Farm B): axillary shoot length, effectiveness vs non-treated control, effective period", "format": "in vivo", "conditions": "Farm A, before second application", "description": "as §1\nThe overall study was designed in random blocks. The treatments utilized were Biosucker, Bioantak (37 DOT), Antak-68.5, Beloukha, Sharpen 33%, and a control treatment that was untreated. On each farm, each test plot was formed by a single line of 20 plants. Each treatment was applied to three separate plots on each farm. […] The first application was applied when the first axillary shoots were observed. Additional applications were applied when the new axillary shoots were observed. Shoots longer than 3 cm were manually removed at the time of each application. […] The phytotoxicity of the treatment compositions was assessed and recorded on a scale of 0 to 5 based on visible symptoms. The number and size of the axil shoots was recorded every 6 to 8 days following the initial treatment application. […] An estimated average length of shoots in each plot could then be calculated according to the number of shoots assigned to each level.\nThe results of the length of axillary shoots measured at Farm A and Farm B are shown in Table 15 and Table 16, respectively. […]\nThe effectiveness of each treatment method and each farm was calculated as compared to the non-treated control group."}, "TH241 tobacco": {"tested_on": "TH241 tobacco", "experiment": "Example 3 plot study: phytotoxicity on a scale of 0 to 5", "format": "in vivo", "conditions": "for Phytotoxicity: scale of 0 to 5", "description": "A third study was conducted comparing the effects of various treatment compositions on TH241 tobacco. The study was designed in random blocks. Each test plot was formed by two rows of ten tobacco plants. Each treatment was applied to three separate plots. […] The first application was performed when the first axillary shoots were observed. Additional applications were performed when new axillary shoots were observed. Shoots longer than 3 cm were manually removed at the time of each application. The applications were performed using a manual backpack sprayer, spraying at a low pressure above the plant toward the stalk so that the composition ran down the stalk, contacting the leaf axils. Approximately 13 to 26 milliliters of composition were applied to each plant. The phytotoxicity of the treatment compositions was assessed and recorded on a scale of 0 to 5 based on visible symptoms. The number and size of the axil shoots was recorded every 7 to 14 days following the initial treatment application. Axillary shoots were assigned a level according to their length. Shoots less than 3 cm in length were assigned to level 1. Shoots between 3 and 15 cm were assigned to level 2. Shoots between 15 and 30 cm were assigned to level 3. Shoots between 30 and 45 cm were assigned to level 4. Shoots between 45 and 60 cm were assigned to level 5. And shoots greater than 60 cm were assigned to level 6. An estimated average length of shoots in each plot could then be calculated according to the number of shoots assigned to each level.\nPhytotoxicity was assessed 9 days and 26 days after the first application of each treatment. […] Only mild symptoms of phytotoxicity were observed on the remaining plants. […] The phytotoxicity was likely more apparent due to the fact that by day 26, two pelargonic acid treatments had already been performed. […] No further evaluations were carried out."}},
  "data": [
    {"compound": "CCCCCCCCC(=O)O", "note": "[Pelargonic acid, pelargonic acid]", "values": [
      {"measurement": "phytotoxicity symptoms", "setting": "tobacco", "value": "highest levels of burns and deformation"},
      {"measurement": "Axillary Shoot Length Results", "setting": "[1]; 5-Aug, D + 19 days", "value": 1.3, "unit": "Cd"},
      {"measurement": "Axillary Shoot Length Results", "setting": "[1]; 12-Aug, D + 26 days", "value": 2.6, "unit": "C"},
      {"measurement": "Axillary Shoot Length Results", "setting": "[1]; 21-Aug, D + 35 days", "value": 1.2, "unit": "Abc"},
      {"measurement": "Axillary Shoot Length Results", "setting": "[1]; 26-Jul, D + 9 days", "value": 1.2, "unit": "C"},
      {"measurement": "Axillary Shoot Length Results", "setting": "[1]; 29-Aug, D + 43 days", "value": 2.3, "unit": "bcde"},
      {"measurement": "Effectiveness Results", "setting": "[1]; Aug 5, D + 19 days", "value": 61, "unit": "%"},
      {"measurement": "Effectiveness Results", "setting": "[1]; Aug 12, D + 26 days", "value": 37, "unit": "%"},
      {"measurement": "Effectiveness Results", "setting": "[1]; Aug 21, D + 35 days", "value": 80, "unit": "%"},
      {"measurement": "Effectiveness Results", "setting": "[1]; Aug 29, D + 43 days", "value": 61, "unit": "%"},
      {"measurement": "Effectiveness Results", "setting": "[1]; July 26, D + 9 days", "value": 39, "unit": "%"},
      {"measurement": "Effectiveness", "setting": "[1]; Oct. 10, D + 85 days", "value": 8, "unit": "%"},
      {"measurement": "Axillary Shoot Length Results", "setting": "[1]; Oct. 10, D + 85 days", "value": 5.5, "unit": "B"},
      {"measurement": "Effectiveness Results", "setting": "[1]; Sept. 11, D + 56 days", "value": 35, "unit": "%"},
      {"measurement": "Axillary Shoot Length Results", "setting": "[1]; Sept. 11, D + 56 days", "value": 3.9, "unit": "C"},
      {"measurement": "Effectiveness Results", "setting": "[1]; Sept. 24, D + 69 days", "value": 16, "unit": "%"},
      {"measurement": "Axillary Shoot Length Results", "setting": "[1]; Sept. 24, D + 69 days", "value": 5.1, "unit": "C"},
      {"measurement": "Effectiveness", "setting": "[1]; Sept. 30, D + 75 days", "value": 9, "unit": "%"},
      {"measurement": "Axillary Shoot Length Results", "setting": "[1]; Sept. 30, D + 75 days", "value": 5.4, "unit": "B"},
      {"measurement": "shoot length", "setting": "[1]; after only 9 days", "value": "~3", "unit": "cm"},
      {"measurement": "day until which shoot length was the same as the standard treatment", "setting": "[2]", "value": 27, "unit": "days"},
      {"measurement": "Phytotoxicity", "setting": "TH241 tobacco; August 12, D + 26 days", "value": 2.0, "unit": "B"},
      {"measurement": "symptoms of phytotoxicity", "setting": "TH241 tobacco; August 21, after a third application", "value": "symptoms of phytotoxicity were still more pronounced"},
      {"measurement": "Phytotoxicity", "setting": "TH241 tobacco; July 26, D + 9 days", "value": 1.6, "unit": "C"}
    ]}
  ]
}
